Patent US20260007758A1, “SO[…]-2 RECEPTOR (SST2R) NON-PEPTIDE DRUG CONJUGATES AND USES THEREOF” (Crinetics Pharmaceuticals, Inc., priority 2024, published 2026)

Assays:
Type in all cases: cell-based
[1] = target: T1, SST2 (Homo sapiens, UniProt P30874); test: PathHunter CHO-K1 SST2 Internalization Assay; details: PathHunter CHO-K1 SST2 cells; 90 min at 37 C; luminescence; read-out: Internalization EC50
T1 construct: host or cells: PathHunter CHO-K1 SST2 cells
Outline: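 Four-parameter nonlinear fits of background-corrected luminescence (duplicate means) gave IC50s. NDCs were serially diluted 1:3 over 11 points from a 10 uM final top concentration and incubated 90 min at 37 C with human SST2 CHO-K1 cells plated 48 h earlier at 2500/well. Beta-Glo read-out developed 60 min at RT.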

[2] = tested on: NCI-H524 human small cell lung cancer cells; test: H524 assay: inhibition of cell proliferation (CellTiter Glo); details: 2 h treatment, washout, additional 70 h incubation
Outline: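 Proliferation was measured by CellTiter Glo 70 h after a washout that followed a 2 h pulse of NDC. Doses were an 11-point, two-fold dilution series from 1 uM. IC50 was fitted with a four-parameter model to luminescence-based % inhibition relative to control cells.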

[3] = target: T2, human somatostatin receptor subtype 2 (Homo sapiens, UniProt P30874); test: Functional assay for SSTR2 agonists (HTRF cAMP); details: CHO-K1 cells stably expressing human SST2; NKH477-stimulated cAMP; 20 min at 37 C; read-out: hSST2 cAMP Avg EC50
T2 construct: expressed in transfected cells
Outline: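 Agonist activity read as fall in intracellular cAMP: HTRF 665/620 nm ratio regressed to a cAMP standard curve, EC50 fitted. Stable human SSTR2 CHO-K1 cells exposed 20 min at 37 °C to compound, final concentrations typically 0-10,000 nM.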

T1 sequence (P30874 whole entry): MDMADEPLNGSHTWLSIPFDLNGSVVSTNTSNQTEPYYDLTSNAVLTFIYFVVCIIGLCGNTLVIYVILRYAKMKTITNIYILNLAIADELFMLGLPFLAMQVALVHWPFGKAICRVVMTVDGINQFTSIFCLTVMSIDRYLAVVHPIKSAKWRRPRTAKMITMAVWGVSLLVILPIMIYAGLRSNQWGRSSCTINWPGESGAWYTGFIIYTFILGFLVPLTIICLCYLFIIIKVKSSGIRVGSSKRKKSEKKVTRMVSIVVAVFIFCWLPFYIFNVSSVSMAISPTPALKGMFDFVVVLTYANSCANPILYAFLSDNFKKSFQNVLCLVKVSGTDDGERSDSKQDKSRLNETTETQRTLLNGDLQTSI
T2 sequence (P30874 whole entry): as above

Structure (SMILES) | EC50 [1] | EC50 [2] | EC50 [3]
CC[C@H](C)[C@@H]([C@@H](CC(=O)N1CCC[C@H]1[C@H](OC)[C@@H](C)C(=O)N[C@H](C)[C@@H](O)c1ccccc1)OC)N(C)C(=O)[C@@H](NC(=O)[C@H](C(C)C)N(C)C(=O)OCc1ccc(NC(=O)[C@H](CCCNC(N)=O)NC(=O)[C@@H](NS(=O)(=O)C[C@H](C)CC(=O)CCOCCC(=O)NCCNc2ncc(-c3cc(C)cc(F)c3)c(N3CCC(N)CC3)c2-c2nc3ccc(Cl)cc3[nH]2)C(C)C)c(O[C@@H]2C[C@H](C(=O)O)[C@@H](O)[C@H](O)[C@H]2O)c1)C(C)C [Compound 132] | 3.2 nM | 410 nM | 0.26 nM
CC[C@H](C)[C@@H]([C@@H](CC(=O)N1CCC[C@H]1[C@H](OC)[C@@H](C)C(=O)N[C@H](C)[C@@H](O)c1ccccc1)OC)N(C)C(=O)[C@@H](NC(=O)[C@H](C(C)C)N(C)C(=O)OCc1ccc(NC(=O)[C@H](C)NC(=O)[C@@H](NC(=O)CN(C)C(=O)CCOCCC(=O)NCCNc2ncc(-c3cc(C)cc(F)c3)c(N3CCC(N)CC3)c2-c2nc3ccc(Cl)cc3[nH]2)C(C)C)c(O[C@@H]2O[C@H](C(=O)O)[C@@H](O)[C@H](O)[C@H]2O)c1)C(C)C [Compound 111] | 8.7 nM | 19 nM | 0.046 nM
CC[C@H](C)[C@@H]([C@@H](CC(=O)N1CCC[C@H]1[C@H](OC)[C@@H](C)C(=O)N[C@H](C)[C@@H](O)c1ccccc1)OC)N(C)C(=O)[C@@H](NC(=O)[C@H](C(C)C)N(C)C(=O)OCc1ccc(NC(=O)[C@H](C)NC(=O)[C@@H](NS(=O)(=O)C[C@H](C)NC(=O)CCOCCC(=O)NCCNc2ncc(-c3cc(C)cc(F)c3)c(N3CCC(N)CC3)c2-c2nc3ccc(Cl)cc3[nH]2)C(C)C)c(O[C@@H]2O[C@H](C(=O)N(C)CC(=O)O)[C@@H](O)[C@H](O)[C@H]2O)c1)C(C)C [Compound 221] | 8.8 nM | 27 nM | 0.15 nM
CC[C@H](C)[C@@H]([C@@H](CC(=O)N1CCC[C@H]1[C@H](OC)[C@@H](C)C(=O)N[C@H](C)[C@@H](O)c1ccccc1)OC)N(C)C(=O)[C@@H](NC(=O)[C@H](C(C)C)N(C)C(=O)OCc1ccc(NC(=O)[C@H](CCCNC(N)=O)NC(=O)[C@@H](NC(=O)c2cc(NCCOCCOCCOCCC(=O)NCCNc3ncc(-c4cc(C)cc(F)c4)c(N4CCC(N)CC4)c3-c3nc4ccc(Cl)cc4[nH]3)cc(C(=O)O)c2)C(C)C)cc1)C(C)C [Compound 177] | 11 nM | 2300 nM | 0.23 nM
CC[C@H](C)[C@@H]([C@@H](CC(=O)N1CCC[C@H]1[C@H](OC)[C@@H](C)C(=O)N[C@H](C)[C@@H](O)c1ccccc1)OC)N(C)C(=O)[C@@H](NC(=O)[C@H](C(C)C)N(C)C(=O)OCc1ccc(NC(=O)[C@H](C)NC(=O)[C@@H](NC(=O)[C@H](CCc2nnn[nH]2)NC(=O)CCOCCC(=O)NCCNc2ncc(-c3cc(C)cc(F)c3)c(N3CCC(N)CC3)c2-c2nc3ccc(Cl)cc3[nH]2)C(C)C)cc1C(=O)NCCN)C(C)C [Compound 66] | 5.6 nM | 6.8 nM | 0.14 nM
CC[C@H](C)[C@@H]([C@@H](CC(=O)N1CCC[C@H]1[C@H](OC)[C@@H](C)C(=O)N[C@H](C)[C@@H](O)c1ccccc1)OC)N(C)C(=O)[C@@H](NC(=O)[C@H](C(C)C)N(C)C(=O)OCc1ccc(NC(=O)[C@H](CCCNC(N)=O)NC(=O)[C@@H](NC(=O)c2cc(NCCOCCC(=O)NCCNc3ncc(-c4cc(C)cc(F)c4)c(N4CCC(N)CC4)c3-c3nc4ccc(Cl)cc4[nH]3)cc(C(=O)NCCN(CC(=O)O)CC(=O)O)c2)C(C)C)cc1)C(C)C [Compound 189] | 7.6 nM | 2200 nM | 0.4 nM
CC[C@H](C)[C@@H]([C@@H](CC(=O)N1CCC[C@H]1[C@H](OC)[C@@H](C)C(=O)N[C@H](C)[C@@H](O)c1ccccc1)OC)N(C)C(=O)[C@@H](NC(=O)[C@H](C(C)C)N(C)C(=O)OCc1ccc(NC(=O)[C@H](CCCNC(N)=O)NC(=O)[C@@H](NC(=O)CCOCCC(=O)NCCNc2ncc(-c3cc(C)cc(F)c3)c(N3CCC(N)CC3)c2-c2nc3ccc(Cl)cc3[nH]2)C(C)C)c(O[C@@H]2O[C@H](C(=O)NCC(=O)NCCCCCCO[PH](=O)OC3CCC(c4ccccc4)(c4ccccc4)CC3)[C@@H](O)[C@H](O)[C@H]2O)c1)C(C)C (stereo partly drawn) [Compound 234] | 6.6 nM | 140 nM | 0.55 nM
CC[C@H](C)[C@@H]([C@@H](CC(=O)N1CCC[C@H]1[C@H](OC)[C@@H](C)C(=O)N[C@H](C)[C@@H](O)c1ccccc1)OC)N(C)C(=O)[C@@H](NC(=O)[C@H](C(C)C)N(C)C(=O)OCc1ccc(NC(=O)[C@H](CCCNC(N)=O)NC(=O)[C@@H](NC(=O)CCOCCC(=O)N(C)CC(=O)NCCNc2ncc(-c3cc(C)cc(F)c3)c(N3CCC(N)CC3)c2-c2nc3ccc(Cl)cc3[nH]2)C(C)C)c(O[C@@H]2O[C@H](C(=O)NCCO)[C@@H](O)[C@H](O)[C@H]2O)c1)C(C)C [Compound 207] | 5.9 nM | 8.4 nM | 0.23 nM
CC[C@H](C)[C@@H]([C@@H](CC(=O)N1CCC[C@H]1[C@H](OC)[C@@H](C)C(=O)N[C@H](C)[C@@H](O)c1ccccc1)OC)N(C)C(=O)[C@@H](NC(=O)[C@H](C(C)C)N(C)C(=O)OCc1ccc(NC(=O)[C@H](CCCNC(N)=O)NC(=O)[C@@H](NC(=O)c2cc(NCCOCCC(=O)NCCNc3ncc(-c4cc(C)cc(F)c4)c(N4CCC(N)CC4)c3-c3nc4ccc(Cl)cc4[nH]3)cc(C(=O)NC[C@@H](N)C(=O)O)c2)C(C)C)cc1)C(C)C [Compound 147] | 23 nM | 35 nM | 0.56 nM
CC[C@H](C)[C@@H]([C@@H](CC(=O)N1CCC[C@H]1[C@H](OC)[C@@H](C)C(=O)N[C@H](C)[C@@H](O)c1ccccc1)OC)N(C)C(=O)[C@@H](NC(=O)C(C(C)C)N(C)C(=O)OCc1ccc(NC(=O)[C@H](CCCNC(N)=O)NC(=O)[C@@H](NC(=O)CCOCCC(=O)NCCNc2ncc(-c3cc(C)cc(F)c3)c(N3CCC(N)CC3)c2-c2nc3ccc(Cl)cc3[nH]2)C(C)C)c(O[C@@H]2O[C@H](C(=O)N3CCN(C)CC3)[C@@H](O)[C@H](O)[C@H]2O)c1)C(C)C (stereo partly drawn) [Compound 226] | 9.3 nM | 4.3 nM | 0.28 nM
CC[C@H](C)[C@@H]([C@@H](CC(=O)N1CCC[C@H]1[C@H](OC)[C@@H](C)C(=O)N[C@H](C)[C@@H](O)c1ccccc1)OC)N(C)C(=O)[C@@H](NC(=O)[C@H](C(C)C)N(C)C(=O)OCc1ccc(NC(=O)[C@H](C)NC(=O)[C@@H](NC(=O)CCOCCC(=O)N(C)CC(=O)NCCNc2ncc(-c3cc(C)cc(F)c3)c(N3CCC(N)CC3)c2-c2nc3ccc(Cl)cc3[nH]2)C(C)C)c(O[C@@H]2O[C@H](C(=O)NCCS(=O)(=O)O)[C@@H](O)[C@H](O)[C@H]2O)c1)C(C)C [Compound 51] | 4.4 nM | 28 nM | 0.092 nM
CC[C@H](C)[C@@H]([C@@H](CC(=O)N1CCC[C@H]1[C@H](OC)[C@@H](C)C(=O)N[C@H](C)[C@@H](O)c1ccccc1)OC)N(C)C(=O)[C@@H](NC(=O)[C@H](C(C)C)N(C)C(=O)OCc1ccc(NC(=O)[C@H](CCCNC(N)=O)NC(=O)[C@@H](NC(=O)CCOCCC(=O)NCCNc2ncc(-c3cc(C)cc(F)c3)c(N3CCC(N)CC3)c2-c2nc3ccc(Cl)cc3[nH]2)C(C)C)cc1C(=O)N[C@@H](CCCCNC(=O)CCCCc1ccc(I)cc1)C(=O)O)C(C)C [Compound 246] | 1.5 nM | 74 nM | 0.1 nM
CC[C@H](C)[C@@H]([C@@H](CC(=O)N1CCC[C@H]1[C@H](OC)[C@@H](C)C(=O)N[C@H](C)[C@@H](O)c1ccccc1)OC)N(C)C(=O)[C@@H](NC(=O)[C@H](C(C)C)N(C)C(=O)OCc1ccc(NC(=O)[C@H](CCCNC(N)=O)NC(=O)[C@@H](NC(=O)c2cc(NCCCCCC(=O)NCCNc3ncc(-c4cc(C)cc(F)c4)c(N4CCC(N)CC4)c3-c3nc4ccc(Cl)cc4[nH]3)cc(C(=O)NCC(=O)O)c2)C(C)C)cc1)C(C)C [Compound 154] | 7.7 nM | 39 nM | 1.6 nM
CC[C@H](C)[C@@H]([C@@H](CC(=O)N1CCC[C@H]1[C@H](OC)[C@@H](C)C(=O)N[C@H](C)[C@@H](O)c1ccccc1)OC)N(C)C(=O)[C@@H](NC(=O)[C@H](C(C)C)N(C)C(=O)OCc1ccc(NC(=O)[C@H](CCCNC(N)=O)NC(=O)[C@@H](NC(=O)C[C@@H](N)C(=O)NCCOCCC(=O)NCCNc2ncc(-c3cc(C)cc(F)c3)c(N3CCC(N)CC3)c2-c2nc3ccc(Cl)cc3[nH]2)C(C)C)c(O[C@@H]2O[C@H](C(=O)NCC(=O)O)[C@@H](O)[C@H](O)[C@H]2O)c1)C(C)C [Compound 35] | 5 nM | 16 nM | 0.1 nM
CC[C@H](C)[C@@H]([C@@H](CC(=O)N1CCC[C@H]1[C@H](OC)[C@@H](C)C(=O)N[C@H](C)[C@@H](O)c1ccccc1)OC)N(C)C(=O)[C@@H](NC(=O)[C@H](C(C)C)N(C)C(=O)OCc1ccc(NC(=O)[C@H](CCCNC(N)=O)NC(=O)[C@@H](NC(=O)[C@H](CCCO)NC(=O)CCOCCC(=O)NCCNc2ncc(-c3cc(C)cc(F)c3)c(N3CCC(N)CC3)c2-c2nc3cc(Cl)ccc3[nH]2)C(C)C)c(O[C@@H]2O[C@H](C(=O)NCC(=O)O)[C@@H](O)[C@H](O)[C@H]2O)c1)C(C)C [Compound 213] | 3.4 nM | 9.2 nM | 0.089 nM
